Test results as given in patent US11178871B2, “Herbicidal pyrimidine compounds” (BASF SE, priority 2016, dated 2021).

Columns and labels:
Type in all cases: in vivo
Avena fatua = test: greenhouse test, post-emergence treatment, AVEFA
Description: (§1) The culture containers used were plastic flowerpots containing loamy sand with approximately 3.0% of humus as the substrate. The seeds of the test plants were sown separately for each species.
(§2) For the post-emergence treatment, the test plants were first grown to a height of 3 to 15 cm, depending on the plant habit, and only then treated with the active ingredients which had been suspended or emulsified in water. For this purpose, the test plants were either sown directly and grown in the same containers, or they were first grown separately as seedlings and transplanted into the test containers a few days prior to treatment.
(§3) Depending on the species, the plants were kept at 10-25° C. or 20-35° C., respectively.
(§4) The test period extended over 2 to 4 weeks. During this time, the plants were tended, and their response to the individual treatments was evaluated.
(§5) Evaluation was carried out using a scale from 0 to 100. 100 means no emergence of the plants, or complete destruction of at least the aerial moieties, and 0 means no damage, or normal course of growth. A good herbicidal activity is given at values of at least 70 and a very good herbicidal activity is given at values of at least 85.
(§6) The plants used in the greenhouse experiments were of the following species: […]

Alopecurus myosuroides = test: greenhouse test, post-emergence treatment, ALOMY; details: post-emergence
Description: as §1, §2, §3, §4, §5, §6

Apera spica-venti = test: greenhouse test, pre-emergence treatment, APESV
Description: as §1
(§7) For the pre-emergence treatment, the active ingredients, which had been suspended or emulsified in water, were applied directly after sowing by means of finely distributing nozzles. The containers were irrigated gently to promote germination and growth and subsequently covered with transparent plastic hoods until the plants had rooted. This cover caused uniform germination of the test plants, unless this had been impaired by the active ingredients.
as §3, §4, §5, §6

Echinocloa crus-galli [1] = test: greenhouse test, pre-emergence treatment, ECHCG
Description: as §1, §7, §3, §4, §5, §6

Echinocloa crus-galli [2] = test: greenhouse test, post-emergence treatment, ECHCG; details: post-emergence
Description: as §1, §2, §3, §4, §5, §6

Compound	herbicidal activity (Avena fatua; 2000 g/ha)	herbicidal activity (Alopecurus myosuroides; 2000 g/ha)	herbicidal activity (Apera spica-venti; 2000 g/ha)	herbicidal activity (Echinocloa crus-galli [1]; 2000 g/ha)	herbicidal activity (Echinocloa crus-galli [2]; 2000 g/ha)	herbicidal activity (Avena fatua; 1000 g/ha)	herbicidal activity (Apera spica-venti; 1000 g/ha)	herbicidal activity (Echinocloa crus-galli [2]; 1000 g/ha)	herbicidal activity (Alopecurus myosuroides; 1000 g/ha)	herbicidal activity (Echinocloa crus-galli [1]; 1000 g/ha)
Cc1cc(-c2nc(C3CC3)ncc2-c2ccccc2Br)c(C)o1 [Ex. 237]	very good (a very good herbicidal activity is given at values of at least 85)	very good (a very good herbicidal activity is given at values of at least 85)	very good (a very good herbicidal activity is given at values of at least 85)	very good (a very good herbicidal activity is given at values of at least 85)	very good (a very good herbicidal activity is given at values of at least 85)	–	–	–	–	–
Fc1ccc(-c2cnc(C3CC3)nc2-c2ccco2)c(Cl)c1 [Ex. 54]	–	–	–	–	–	very good (a very good herbicidal activity is given at values of at least 85)	very good (a very good herbicidal activity is given at values of at least 85)	very good (a very good herbicidal activity is given at values of at least 85)	–	–
Cc1oc(C(C)C)nc1-c1nc(C2CC2)ncc1-c1ccccc1Cl [Ex. 283]	very good (a very good herbicidal activity is given at values of at least 85)	very good (a very good herbicidal activity is given at values of at least 85)	very good (a very good herbicidal activity is given at values of at least 85)	good (A good herbicidal activity is given at values of at least 70)	very good (a very good herbicidal activity is given at values of at least 85)	–	–	–	–	–
COC(=O)C(C)c1nc(C2CC2)ncc1-c1cc(F)ccc1Cl (stereo not drawn) [Ex. 159]	very good (a very good herbicidal activity is given at values of at least 85)	very good (a very good herbicidal activity is given at values of at least 85)	good (A good herbicidal activity is given at values of at least 70)	good (A good herbicidal activity is given at values of at least 70)	–	–	–	–	–	–
Cc1ncoc1-c1nc(C2CC2)ncc1-c1cc(F)ccc1Cl [Ex. 236]	very good (a very good herbicidal activity is given at values of at least 85)	very good (a very good herbicidal activity is given at values of at least 85)	very good (a very good herbicidal activity is given at values of at least 85)	very good (a very good herbicidal activity is given at values of at least 85)	very good (a very good herbicidal activity is given at values of at least 85)	–	–	–	–	–
COCc1nc(C2CC2)ncc1-c1ccccc1Cl [Ex. 22]	–	–	–	–	–	very good (a very good herbicidal activity is given at values of at least 85)	very good (a very good herbicidal activity is given at values of at least 85)	very good (a very good herbicidal activity is given at values of at least 85)	very good (a very good herbicidal activity is given at values of at least 85)	–
C/C=C/c1nc(C2CC2)ncc1-c1ccccc1Cl [Ex. 93]	very good (a very good herbicidal activity is given at values of at least 85)	very good (a very good herbicidal activity is given at values of at least 85)	very good (a very good herbicidal activity is given at values of at least 85)	very good (a very good herbicidal activity is given at values of at least 85)	very good (a very good herbicidal activity is given at values of at least 85)	–	–	–	–	–
OC(c1nc(C2CC2)ncc1-c1ccccc1Cl)C1(O)CCC1 (stereo not drawn) [Ex. 154]	very good (a very good herbicidal activity is given at values of at least 85)	very good (a very good herbicidal activity is given at values of at least 85)	very good (a very good herbicidal activity is given at values of at least 85)	very good (a very good herbicidal activity is given at values of at least 85)	very good (a very good herbicidal activity is given at values of at least 85)	–	–	–	–	–
Cc1nc(C)c(-c2nc(C3CC3)ncc2-c2ccccc2Cl)o1 [Ex. 243]	–	–	–	–	–	very good (a very good herbicidal activity is given at values of at least 85)	very good (a very good herbicidal activity is given at values of at least 85)	very good (a very good herbicidal activity is given at values of at least 85)	very good (a very good herbicidal activity is given at values of at least 85)	very good (a very good herbicidal activity is given at values of at least 85)
Brc1ccccc1-c1cnc(C2CC2)nc1C=C1CCC1 [Ex. 157]	very good (a very good herbicidal activity is given at values of at least 85)	very good (a very good herbicidal activity is given at values of at least 85)	very good (a very good herbicidal activity is given at values of at least 85)	very good (a very good herbicidal activity is given at values of at least 85)	very good (a very good herbicidal activity is given at values of at least 85)	–	–	–	–	–
Cc1nc(C)c(-c2nc(C3CC3)ncc2-c2cc(F)ccc2Cl)o1 [Ex. 284]	very good (a very good herbicidal activity is given at values of at least 85)	very good (a very good herbicidal activity is given at values of at least 85)	very good (a very good herbicidal activity is given at values of at least 85)	very good (a very good herbicidal activity is given at values of at least 85)	very good (a very good herbicidal activity is given at values of at least 85)	–	–	–	–	–
Cc1ncoc1-c1nc(C2CC2)ncc1-c1cc(C(F)(F)F)ccc1Br [Ex. 263]	–	–	–	–	–	very good (a very good herbicidal activity is given at values of at least 85)	very good (a very good herbicidal activity is given at values of at least 85)	very good (a very good herbicidal activity is given at values of at least 85)	very good (a very good herbicidal activity is given at values of at least 85)	very good (a very good herbicidal activity is given at values of at least 85)
Brc1ccccc1-c1cnc(C2CC2)nc1-c1cocn1 [Ex. 287]	–	–	–	–	–	very good (a very good herbicidal activity is given at values of at least 85)	very good (a very good herbicidal activity is given at values of at least 85)	very good (a very good herbicidal activity is given at values of at least 85)	very good (a very good herbicidal activity is given at values of at least 85)	very good (a very good herbicidal activity is given at values of at least 85)
OC(Cc1nc(C2CC2)ncc1-c1ccccc1Cl)c1ccco1 (stereo not drawn) [Ex. 106]	very good (a very good herbicidal activity is given at values of at least 85)	very good (a very good herbicidal activity is given at values of at least 85)	very good (a very good herbicidal activity is given at values of at least 85)	very good (a very good herbicidal activity is given at values of at least 85)	very good (a very good herbicidal activity is given at values of at least 85)	–	–	–	–	–
Brc1ccccc1-c1cnc(C2CC2)nc1-c1ccoc1 [Ex. 40]	very good (a very good herbicidal activity is given at values of at least 85)	very good (a very good herbicidal activity is given at values of at least 85)	very good (a very good herbicidal activity is given at values of at least 85)	very good (a very good herbicidal activity is given at values of at least 85)	–	–	–	–	–	–
Clc1ccccc1-c1cnc(C2CC2)nc1C=C1CCCC1 [Ex. 128]	very good (a very good herbicidal activity is given at values of at least 85)	good (A good herbicidal activity is given at values of at least 70)	very good (a very good herbicidal activity is given at values of at least 85)	–	very good (a very good herbicidal activity is given at values of at least 85)	–	–	–	–	–
COC(=O)Cc1nc(C2CC2)ncc1-c1ccccc1Br [Ex. 67]	very good (a very good herbicidal activity is given at values of at least 85)	very good (a very good herbicidal activity is given at values of at least 85)	very good (a very good herbicidal activity is given at values of at least 85)	–	good (A good herbicidal activity is given at values of at least 70)	–	–	–	–	–
